Columns and labels:
Test in all cases: In vitro cytotoxicity, CellTiter-Glo cell viability
Type in all cases: cell-based
[1] = system: colon (COLO 205) adenocarcinoma cells; conditions: Homo sapiens, 72 h incubation, CPT-equivalent concentrations
From the text: (§1) HPLC characterization of CPT liberation from CPT-polyMPC conjugates confirmed the importance of tailored linkers, and was informative for in vitro cell culture evaluation of conjugate toxicity against various cell lines. […] These CPT hydrolysis half-lives are, however, slower than those reported for PEGylated-SN38 conjugates, leading to an expected longer blood circulation time in vivo. […] Controls included a DMSO solution of CPT, and polyMPC itself in sterile distilled water. […] Importantly, the cytotoxicity was through the CPT only, since polyMPC by itself was non-toxic (FIG. 8).
(§2) Sodium azide, 4-(dimethylamino)pyridine (DMAP), N,N′-diisopropylethylamine (DIPEA), triethylamine (TEA), N-(3-Dimethylaminopropyl)-N′-ethylcarbodiimide hydrochloride (EDC), 2-bromopropionyl bromide, 2-bromoisobutyryl bromide, copper(I) bromide, 2,2′-bipyridine (bpy), 6-bromohexanoic acid, 2-[2-(2-chloroethoxy)ethoxy]ethanol, ethyl 2-bromoisobutyrate, 3-(trimethylsilyl)propargyl alcohol, methacyloyl chloride, mouse serum, and human plasma were purchased from Aldrich. 20(S)-camptothecin (CPT) was purchased from Acros. Chromium trioxide was purchased from Alfa Aesar. TFA was purchased from Fisher Scientific. Boc-Gly-OH was purchased from Advanced ChemTech. MPC monomer was synthesized in house. […] Cell viability was measured using CellTiter-Glo luminescent cell viability assays (Promega).
(§3) The COLO 205 and OVCAR 3 cancer cells were cultured in RPMI-1640 medium supplemented with 10% fetal bovine serum (FBS) or 20% FBS and 0.01 mg/ml bovine insulin, while MCF 7 cells were cultured in MEM medium supplemented with 10% FBS and 0.01 mg/ml bovine insulin. […] Cell viability post-treatment was measured using CellTiter-Glo luminescent cell viability assays (Promega) as per manufacturer's instructions on a FLUOstar OPTIMA plate reader (BMG LABTECH). The percentage camptothecin mediated toxicity was calculated with respect to untreated cells, and graphed to give dose response curves. IC50 values for each treatment were then calculated using the GraphPad Prism4 statistical analysis software.

[2] = system: human breast (MCF-7) adenocarcinoma cells; conditions: MCF7, 72 h incubation, CPT-equivalent concentrations
From the text: as §1, §2, §3

[3] = system: ovarian (OVCAR 3) adenocarcinoma cells; conditions: Homo sapiens, 72 h incubation, CPT-equivalent concentrations
From the text: as §1, §2, §3

`CC[C@@]1(O)C(=O)OCc2c1cc1n(c2=O)Cc2cc3ccccc3nc2-1` [CPT, 20(S)-Camptothecin] gave an IC50 [1] of 320 nM, an IC50 [2] of 290 nM and an IC50 [3] of 130 nM.
